Assay results taken from the CheMixHub viscosity set.

Assay: xn = mol fraction of the nth substance listed

CCCCCCCCCCCCCCCCCCCCCCCC + CCCCCCC
Settings	viscosity [mPa·s]
313.2 K, 101.3 kPa, x1 = 0.198	0.9672

CCOC(=O)c1ccccc1 + CCCCCCC
viscosity [mPa·s]
Settings	298.15 K	303.15 K	308.15 K	313.15 K	318.15 K
101 kPa, x1 = 0.1042	–	0.417	0.397	0.37	–
101 kPa, x1 = 0.2052	–	0.475	0.447	0.42	–
101 kPa, x1 = 0.3085	–	0.55	0.514	0.482	–
101 kPa, x1 = 0.4071	–	0.63	0.591	0.55	–
101 kPa, x1 = 0.5078	–	0.738	0.687	0.64	–
101 kPa, x1 = 0.6071	–	0.865	0.802	0.745	–
101 kPa, x1 = 0.7074	–	1.03	0.95	0.875	–
101 kPa, x1 = 0.8047	–	1.217	1.12	1.03	–
101 kPa, x1 = 0.9038	–	1.466	1.34	1.23	–
101.3 kPa, x1 = 0.098	0.428	–	0.387	–	0.351
101.3 kPa, x1 = 0.1952	0.484	–	0.433	–	0.393
101.3 kPa, x1 = 0.2948	0.55	–	0.492	–	0.44
101.3 kPa, x1 = 0.3941	0.638	–	0.564	–	0.498
101.3 kPa, x1 = 0.4961	0.747	–	0.655	–	0.571
101.3 kPa, x1 = 0.5985	0.882	–	0.767	–	0.662
101.3 kPa, x1 = 0.6974	1.047	–	0.912	–	0.771
101.3 kPa, x1 = 0.7984	1.263	–	1.082	–	0.913
101.3 kPa, x1 = 0.8972	1.539	–	1.286	–	1.08

CC1CCCCC1 + CCCCCCCC
viscosity [mPa·s], 101 kPa
Settings	293.15 K	298.15 K	303.15 K	308.15 K
x1 = 0.0401	0.5414	0.5075	0.482	–
x1 = 0.1044	–	0.524	0.496	0.468
x1 = 0.1998	0.5583	0.5193	0.4944	–
x1 = 0.2066	–	0.535	0.504	0.474
x1 = 0.2801	0.5689	0.5283	0.5018	–
x1 = 0.3045	–	0.543	0.512	0.481
x1 = 0.3514	0.5781	0.5367	0.5067	–
x1 = 0.4068	–	0.557	0.525	0.493
x1 = 0.4282	0.5879	0.5477	0.5161	–
x1 = 0.5043	–	0.57	0.537	0.504
x1 = 0.6015	–	0.586	0.552	0.518
x1 = 0.6051	0.6189	0.5761	0.5389	–
x1 = 0.6759	0.634	0.5912	0.5529	–
x1 = 0.7015	–	0.603	0.567	0.532
x1 = 0.7572	0.6552	0.6123	0.5712	–
x1 = 0.8023	–	0.624	0.587	0.55
x1 = 0.8382	0.6791	0.6323	0.5918	–
x1 = 0.8984	–	0.646	0.607	0.568
x1 = 0.9197	0.7023	0.6539	0.6124	–
x2 = 0.0861	–	0.655	–	–
x2 = 0.1756	–	0.633	–	–
x2 = 0.3246	–	0.602	–	–
x2 = 0.4674	–	0.577	–	–
x2 = 0.6154	–	0.559	–	–
x2 = 0.7785	–	0.526	–	–
x2 = 0.7797	–	0.535	–	–

CCOC(=O)c1ccccc1 + CCCCCCCC
101 kPa
Settings	viscosity [mPa·s]
298.15 K, x2 = 0.0634	1.743
298.15 K, x2 = 0.1034	1.624
298.15 K, x2 = 0.1463	1.503
298.15 K, x2 = 0.1843	1.405
298.15 K, x2 = 0.2315	1.299
298.15 K, x2 = 0.2774	1.203
298.15 K, x2 = 0.3224	1.125
298.15 K, x2 = 0.4189	0.973
298.15 K, x2 = 0.4608	0.92
298.15 K, x2 = 0.5113	0.861
298.15 K, x2 = 0.5549	0.813
298.15 K, x2 = 0.6018	0.767
298.15 K, x2 = 0.6476	0.726
298.15 K, x2 = 0.6978	0.686
298.15 K, x2 = 0.7588	0.644
298.15 K, x2 = 0.8037	0.616
298.15 K, x2 = 0.8646	0.583
298.15 K, x2 = 0.9214	0.556
303.15 K, x1 = 0.1144	0.526
303.15 K, x1 = 0.2227	0.58
303.15 K, x1 = 0.3291	0.655
303.15 K, x1 = 0.4327	0.738
303.15 K, x1 = 0.532	0.837
303.15 K, x1 = 0.6312	0.961
303.15 K, x1 = 0.7281	1.11
303.15 K, x1 = 0.8205	1.29
303.15 K, x1 = 0.9123	1.505
308.15 K, x1 = 0.1144	0.499
308.15 K, x1 = 0.2227	0.552
308.15 K, x1 = 0.3291	0.616
308.15 K, x1 = 0.4327	0.697
308.15 K, x1 = 0.532	0.786
308.15 K, x1 = 0.6312	0.896
308.15 K, x1 = 0.7281	1.033
308.15 K, x1 = 0.8205	1.197
308.15 K, x1 = 0.9123	1.385
308.15 K, x2 = 0.0649	1.485
308.15 K, x2 = 0.1092	1.382
308.15 K, x2 = 0.1488	1.3
308.15 K, x2 = 0.193	1.212
308.15 K, x2 = 0.2347	1.13
308.15 K, x2 = 0.2789	1.054
308.15 K, x2 = 0.3252	0.98
308.15 K, x2 = 0.3696	0.919
308.15 K, x2 = 0.4206	0.854
308.15 K, x2 = 0.4626	0.807
308.15 K, x2 = 0.5118	0.757
308.15 K, x2 = 0.5624	0.709
308.15 K, x2 = 0.5958	0.682
308.15 K, x2 = 0.6528	0.639
308.15 K, x2 = 0.7049	0.605
308.15 K, x2 = 0.756	0.575
308.15 K, x2 = 0.8027	0.55
308.15 K, x2 = 0.8565	0.525
308.15 K, x2 = 0.9175	0.501
313.15 K, x1 = 0.1144	0.468
313.15 K, x1 = 0.2227	0.516
313.15 K, x1 = 0.3291	0.574
313.15 K, x1 = 0.4327	0.649
313.15 K, x1 = 0.532	0.732
313.15 K, x1 = 0.6312	0.835
313.15 K, x1 = 0.7281	0.961
313.15 K, x1 = 0.8205	1.105
313.15 K, x1 = 0.9123	1.277
318.15 K, x2 = 0.0385	1.272
318.15 K, x2 = 0.0833	1.188
318.15 K, x2 = 0.1243	1.117
318.15 K, x2 = 0.1716	1.038
318.15 K, x2 = 0.2145	0.972
318.15 K, x2 = 0.263	0.905
318.15 K, x2 = 0.3062	0.85
318.15 K, x2 = 0.356	0.793
318.15 K, x2 = 0.4002	0.747
318.15 K, x2 = 0.4505	0.698
318.15 K, x2 = 0.4957	0.662
318.15 K, x2 = 0.5474	0.622
318.15 K, x2 = 0.5939	0.592
318.15 K, x2 = 0.6472	0.56
318.15 K, x2 = 0.6945	0.536
318.15 K, x2 = 0.7483	0.51
318.15 K, x2 = 0.7987	0.491
318.15 K, x2 = 0.8549	0.469
318.15 K, x2 = 0.9034	0.452
